Results from publication PMC10467532, “Design, synthesis, and biological evaluation of thiazole/thiadiazole carboxamide scaffold-based derivatives as potential c-Met kinase inhibitors for cancer treatment” (Journal of Enzyme Inhibition and Medicinal Chemistry, 2023).

Columns and labels:
A549 = assay: MTT antiproliferative assay, A549; conditions: Homo sapiens, A549, 48 h, read-out: IC50 A549
Protocol: (§2) MTT assay was used to determine the cytotoxic activity of target compounds against different cell lines. […] Then, the cells were treated with five doses of test compounds (pre-dissolved in DMSO), and 0.1% DMSO was used as a negative control. […] The results expressed as IC50 were the average of three determinations calculated by using the Bacus Laboratories Incorporated Slide Scanner (Bliss) software.

Flt-4 = target: T1, Flt-4 (Homo sapiens, UniProt P35916); assay: Tyrosine kinase HTRF assay, Flt-4; type: biochemical
T1 construct: purchased Invitrogen (Waltham, MA)
Protocol: (§1) On the other hand, comprehensive understanding the off-target kinase inhibition is critical for any kinase inhibitors, particularly to help explain the correlations between efficacy and potential side effects. […] The reactions were quenched by addition 10 µL mixed detection solution. […] The inhibition rate (%) was calculated using the following equation: inhibition rate = [(activity of enzyme with tested compound – min)/(max – min)] × 100 (max: the enzyme activity in the presence of enzyme, substrates and cofactors; min: the enzyme activity in the presence of substrates, cofactors and in the absence of enzyme). IC50 value was calculated from the inhibition curve using GraphPad Prism 5.0 software (La Jolla, CA).

HT-29 = assay: MTT antiproliferative assay, HT-29; conditions: Homo sapiens, HT-29, 48 h, read-out: IC50 HT-29
Protocol: as §2

PDGFRα = target: T2, PDGFRα (Homo sapiens, UniProt P16234); assay: Tyrosine kinase HTRF assay, PDGFRα; type: biochemical
T2 construct: purchased Invitrogen (Waltham, MA)
Protocol: as §1

EGFR = target: T3, EGFR (Homo sapiens, UniProt P00533); assay: Tyrosine kinase HTRF assay, EGFR; type: biochemical
T3 construct: purchased Invitrogen (Waltham, MA)
Protocol: as §1

[1] = system: c-Met phosphorylation in MKN-45 cells; assay: Western blotting analysis of c-Met phosphorylation; type: cell-based, human; conditions: 24 h, 0, 2.5, 5.0, and 10.0 μM
Protocol: To obtain further insight into the mechanism of 51am induced apoptosis, western blot assay was carried out to investigate the effect of 51am on the phosphorylation of c-Met in living cells. MKN-45 cells were treated with 51am for 24 h in a series of concentrations (0, 2.5, 5.0, and 10.0 μM) using DMSO as the negative control, and the level of GAPDH served as the loading control.
MKN-45 cells were incubated with the test compound at various concentrations for 24 h. After incubation, cells were harvested in PBS solution containing proteinase inhibitors and phosphatase inhibitors, and then sonicated. Whole cell lysates were separated by sodium dodecyl sulphate-polyacrylamide gel electrophoresis (SDS-PAGE) and transferred to nitrocellulose membrane (Beyotime Biotechnology, Shanghai, China). The membrane was incubated with primary antibody followed by labelling with horseradish peroxidase (HRP)-conjugated secondary antibody (Beyotime Biotechnology, Shanghai, China). The blots were developed with enhanced chemiluminescence and visualised by an LAS4000 imager (Fuji Photo Film, Minato City, Japan).

c-kit = target: T4, c-kit (Homo sapiens, UniProt P10721); assay: Tyrosine kinase HTRF assay, c-kit; type: biochemical
T4 construct: purchased Invitrogen (Waltham, MA)
Protocol: as §1

PDGFRβ = target: T5, PDGFRβ (Homo sapiens, UniProt P09619); assay: Tyrosine kinase HTRF assay, PDGFRβ; type: biochemical
T5 construct: purchased Invitrogen (Waltham, MA)
Protocol: as §1

Flt-3 = target: T6, Flt-3 (Homo sapiens, UniProt P36888); assay: Tyrosine kinase HTRF assay, Flt-3; type: biochemical
T6 construct: purchased Invitrogen (Waltham, MA)
Protocol: as §1

FHC = assay: MTT cytotoxicity assay, normal FHC cells; conditions: Homo sapiens, 48 h, read-out: IC50 FHC
Protocol: as §2

c-Met Y1230H = target: T7, c-Met Y1230H (Homo sapiens, UniProt P08581, Y1230H); assay: Tyrosine kinase HTRF assay, c-Met Y1230H; type: biochemical
T7 construct: purchased Invitrogen (Waltham, MA)
Protocol: as §1

c-Met D1228H = target: T8, c-Met D1228H (Homo sapiens, UniProt P08581, D1228H); assay: Tyrosine kinase HTRF assay, c-Met D1228H; type: biochemical
T8 construct: purchased Invitrogen (Waltham, MA)
Protocol: as §1

MDA-MB-231 = assay: MTT antiproliferative assay, MDA-MB-231; conditions: Homo sapiens, MDA-MB-231, 48 h, read-out: IC50 MDA-MB-231
Protocol: as §2

MKN-45 = assay: MTT antiproliferative assay, MKN-45; conditions: Homo sapiens, MKN-45, 48 h, read-out: IC50 MKN-45
Protocol: as §2

c-Met H1094R = target: T9, c-Met H1094R (Homo sapiens, UniProt P08581, H1094R); assay: Tyrosine kinase HTRF assay, c-Met H1094R; type: biochemical
T9 construct: purchased Invitrogen (Waltham, MA)
Protocol: as §1

[2] = Pharmacokinetic study in BALB/c mice; type: in vivo; conditions: male, mouse, plasma
Protocol: Identification of drugs with an acceptable balance of potency, physical properties, and pharmacokinetics (PK) has always been a challenge that often hinders evaluation of the compounds in xenograft models and therapeutic use in clinical practice. Therefore, the PK profile of compound 51am was evaluated in BALB/c mice after intravenous (i.v.) injection and oral administration (p.o.) because of its excellent in vitro activity. […] Based on the good overall PK profile, 51am could be a potential candidate for cancer therapy.
The experimental procedures and the animal use and care protocols were approved by the Committee on Ethical Use of Animals of Shenzhen Second People’s Hospital. Each male BALB/c mice received a single compound 51am as a solution in PEG 400/water (70:30) by either oral route (10 mg/kg) or i.v. route (1.5 mg/kg). Blood samples were collected into the microcentrifuge tube containing heparin at time points 0 (prior to dosing) 5, 10, 20, 30, 60, 180, 360, 480, 600, 720, 1080, and 1440 min after dosing. The blood samples were centrifuged; the obtained plasma was separated and stored at –20 °C. All samples for 51am were measured by liquid chromatography–tandem mass spectrometry (LC/MS/MS).

Ron = target: T10, Ron (Homo sapiens, UniProt Q04912); assay: Tyrosine kinase HTRF assay, Ron; type: biochemical
T10 construct: purchased Invitrogen (Waltham, MA)
Protocol: as §1

c-Met Y1235D = target: T11, c-Met Y1235D (Homo sapiens, UniProt P08581, Y1235D); assay: Tyrosine kinase HTRF assay, c-Met Y1235D; type: biochemical
T11 construct: purchased Invitrogen (Waltham, MA)
Protocol: as §1

VEGFR-2 = target: T12, VEGFR-2 (Homo sapiens, UniProt P35968); assay: Tyrosine kinase HTRF assay, VEGFR-2; type: biochemical
T12 construct: purchased Invitrogen (Waltham, MA)
Protocol: as §1

HUVEC = assay: MTT cytotoxicity assay, normal HUVEC cells; conditions: Homo sapiens, 48 h, read-out: IC50 HUVEC
Protocol: as §2

[3] = system: PDGFRα, PDGFRβ, VEGFR-2, and Flt-4; assay: Kinase selectivity relative to c-Met; type: biochemical
Protocol: as §1

c-Met = target: T13, c-Met (Homo sapiens, UniProt P08581); assay: In vitro c-Met enzymatic assay (HTRF); type: biochemical; conditions: HTRF assay; mean ± SD, triplicate; read-out: IC50 against c-Met
T13 construct: purchased Invitrogen (Waltham, MA)

MKN-45 cells = assay: Apoptosis by Annexin V/PI double staining, flow cytometry; conditions: 24 h, control 6.02%
Protocol: Apoptosis was detected by an Annexin V/propidium iodide (PI) double staining kit (Beyotime Biotechnology, Shanghai, China). […] Cells were harvested by trypsinisation and washed with ice-cold PBS solution. Cells were labelled with annexin V and PI and incubated at room temperature for 30 min in the dark. The labelled cells were analysed by a FACScan flow cytometer (Becton Dickinson, Franklin Lakes, NJ).

c-Met M1250T = target: T14, c-Met M1250T (Homo sapiens, UniProt P08581, M1250T); assay: Tyrosine kinase HTRF assay, c-Met M1250T; type: biochemical
T14 construct: purchased Invitrogen (Waltham, MA)
Protocol: as §1

T4 sequence (P10721 26-976): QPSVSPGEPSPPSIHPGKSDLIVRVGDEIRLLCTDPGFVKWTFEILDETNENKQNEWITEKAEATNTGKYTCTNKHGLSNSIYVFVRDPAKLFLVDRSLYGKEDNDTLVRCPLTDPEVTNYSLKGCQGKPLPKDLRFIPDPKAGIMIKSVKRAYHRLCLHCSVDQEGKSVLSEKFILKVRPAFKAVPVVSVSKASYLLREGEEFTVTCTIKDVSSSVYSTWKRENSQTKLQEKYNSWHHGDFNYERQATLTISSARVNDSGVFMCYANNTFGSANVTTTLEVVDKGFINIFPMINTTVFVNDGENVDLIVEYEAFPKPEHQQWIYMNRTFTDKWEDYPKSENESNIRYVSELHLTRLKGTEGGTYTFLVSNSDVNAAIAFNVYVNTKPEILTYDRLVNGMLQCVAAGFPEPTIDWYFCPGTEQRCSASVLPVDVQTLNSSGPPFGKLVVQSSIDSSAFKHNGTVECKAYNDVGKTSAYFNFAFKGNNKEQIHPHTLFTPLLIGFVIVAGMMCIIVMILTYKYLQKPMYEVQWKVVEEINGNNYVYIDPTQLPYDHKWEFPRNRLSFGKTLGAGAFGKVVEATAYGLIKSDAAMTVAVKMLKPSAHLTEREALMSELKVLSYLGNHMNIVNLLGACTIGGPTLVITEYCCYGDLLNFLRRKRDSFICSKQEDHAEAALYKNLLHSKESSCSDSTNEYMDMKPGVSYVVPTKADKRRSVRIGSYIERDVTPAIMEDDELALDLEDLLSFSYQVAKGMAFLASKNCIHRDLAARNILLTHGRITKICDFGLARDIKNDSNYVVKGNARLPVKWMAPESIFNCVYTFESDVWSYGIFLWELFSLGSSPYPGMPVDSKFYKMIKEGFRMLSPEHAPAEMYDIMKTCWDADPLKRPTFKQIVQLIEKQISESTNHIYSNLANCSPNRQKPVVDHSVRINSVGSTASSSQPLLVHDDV
T8 sequence (P08581 25-1390 D1228H): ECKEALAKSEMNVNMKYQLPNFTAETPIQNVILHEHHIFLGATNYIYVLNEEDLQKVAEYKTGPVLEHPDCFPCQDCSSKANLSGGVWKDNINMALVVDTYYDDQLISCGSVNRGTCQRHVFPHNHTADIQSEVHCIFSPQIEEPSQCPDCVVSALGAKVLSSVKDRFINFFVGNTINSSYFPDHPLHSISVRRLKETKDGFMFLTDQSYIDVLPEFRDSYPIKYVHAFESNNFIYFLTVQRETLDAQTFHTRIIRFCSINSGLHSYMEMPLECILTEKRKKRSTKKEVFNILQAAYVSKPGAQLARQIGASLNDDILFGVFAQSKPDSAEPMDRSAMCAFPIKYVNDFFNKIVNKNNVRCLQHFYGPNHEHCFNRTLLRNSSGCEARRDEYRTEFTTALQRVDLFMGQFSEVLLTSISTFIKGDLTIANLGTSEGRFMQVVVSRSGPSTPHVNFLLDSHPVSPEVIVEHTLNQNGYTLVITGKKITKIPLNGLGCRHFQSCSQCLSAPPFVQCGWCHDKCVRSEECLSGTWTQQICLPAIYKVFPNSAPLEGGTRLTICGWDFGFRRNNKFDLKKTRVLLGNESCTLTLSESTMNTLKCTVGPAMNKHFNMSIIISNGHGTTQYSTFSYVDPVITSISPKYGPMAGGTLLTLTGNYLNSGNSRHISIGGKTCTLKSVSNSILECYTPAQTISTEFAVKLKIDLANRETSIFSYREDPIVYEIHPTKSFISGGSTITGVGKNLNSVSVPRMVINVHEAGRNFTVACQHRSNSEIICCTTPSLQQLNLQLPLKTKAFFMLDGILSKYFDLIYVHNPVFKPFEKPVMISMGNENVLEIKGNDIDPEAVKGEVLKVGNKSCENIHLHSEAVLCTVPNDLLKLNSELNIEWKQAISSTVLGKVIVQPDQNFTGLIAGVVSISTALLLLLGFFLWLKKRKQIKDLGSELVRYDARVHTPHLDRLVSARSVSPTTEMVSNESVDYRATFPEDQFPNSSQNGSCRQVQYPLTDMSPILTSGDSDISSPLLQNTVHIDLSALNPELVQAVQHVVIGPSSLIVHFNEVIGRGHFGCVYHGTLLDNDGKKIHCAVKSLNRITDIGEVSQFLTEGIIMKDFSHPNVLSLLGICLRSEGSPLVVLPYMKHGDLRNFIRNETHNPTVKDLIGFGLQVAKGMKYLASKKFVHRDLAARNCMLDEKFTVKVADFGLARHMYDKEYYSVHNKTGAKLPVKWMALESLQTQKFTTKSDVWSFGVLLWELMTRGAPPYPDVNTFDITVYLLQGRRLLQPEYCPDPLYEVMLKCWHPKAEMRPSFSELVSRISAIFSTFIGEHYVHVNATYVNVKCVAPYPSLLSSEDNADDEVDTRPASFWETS
T3 sequence (P00533 25-1210): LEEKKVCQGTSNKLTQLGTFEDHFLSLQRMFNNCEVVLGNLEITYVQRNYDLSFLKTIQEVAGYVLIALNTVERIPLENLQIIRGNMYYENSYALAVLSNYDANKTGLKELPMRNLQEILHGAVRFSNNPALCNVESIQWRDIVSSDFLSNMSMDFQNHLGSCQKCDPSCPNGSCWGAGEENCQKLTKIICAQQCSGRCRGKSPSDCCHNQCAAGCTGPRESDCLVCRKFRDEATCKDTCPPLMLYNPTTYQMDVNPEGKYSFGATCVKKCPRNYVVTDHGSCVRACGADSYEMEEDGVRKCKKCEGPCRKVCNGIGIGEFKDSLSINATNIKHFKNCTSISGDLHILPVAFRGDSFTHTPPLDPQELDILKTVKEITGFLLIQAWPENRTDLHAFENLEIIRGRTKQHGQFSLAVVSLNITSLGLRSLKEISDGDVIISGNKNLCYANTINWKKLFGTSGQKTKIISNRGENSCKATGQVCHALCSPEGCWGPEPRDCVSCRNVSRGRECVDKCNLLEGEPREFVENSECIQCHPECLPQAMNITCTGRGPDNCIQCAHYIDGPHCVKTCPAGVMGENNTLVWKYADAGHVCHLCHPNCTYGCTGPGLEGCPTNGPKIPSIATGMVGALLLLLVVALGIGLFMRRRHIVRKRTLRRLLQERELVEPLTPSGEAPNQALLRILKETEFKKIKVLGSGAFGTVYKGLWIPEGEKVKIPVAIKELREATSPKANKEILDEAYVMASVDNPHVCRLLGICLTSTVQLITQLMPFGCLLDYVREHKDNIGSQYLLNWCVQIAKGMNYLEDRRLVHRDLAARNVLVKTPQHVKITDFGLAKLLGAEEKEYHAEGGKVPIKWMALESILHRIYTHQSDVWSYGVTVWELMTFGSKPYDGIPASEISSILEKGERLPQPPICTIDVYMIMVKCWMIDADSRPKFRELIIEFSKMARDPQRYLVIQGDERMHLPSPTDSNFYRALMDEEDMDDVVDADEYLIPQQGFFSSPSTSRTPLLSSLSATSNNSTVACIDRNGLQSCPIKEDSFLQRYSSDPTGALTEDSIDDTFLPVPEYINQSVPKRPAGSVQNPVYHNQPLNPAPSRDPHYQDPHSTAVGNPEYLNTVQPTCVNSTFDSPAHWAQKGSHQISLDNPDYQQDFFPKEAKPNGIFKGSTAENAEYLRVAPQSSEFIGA
T9 sequence (P08581 25-1390 H1094R): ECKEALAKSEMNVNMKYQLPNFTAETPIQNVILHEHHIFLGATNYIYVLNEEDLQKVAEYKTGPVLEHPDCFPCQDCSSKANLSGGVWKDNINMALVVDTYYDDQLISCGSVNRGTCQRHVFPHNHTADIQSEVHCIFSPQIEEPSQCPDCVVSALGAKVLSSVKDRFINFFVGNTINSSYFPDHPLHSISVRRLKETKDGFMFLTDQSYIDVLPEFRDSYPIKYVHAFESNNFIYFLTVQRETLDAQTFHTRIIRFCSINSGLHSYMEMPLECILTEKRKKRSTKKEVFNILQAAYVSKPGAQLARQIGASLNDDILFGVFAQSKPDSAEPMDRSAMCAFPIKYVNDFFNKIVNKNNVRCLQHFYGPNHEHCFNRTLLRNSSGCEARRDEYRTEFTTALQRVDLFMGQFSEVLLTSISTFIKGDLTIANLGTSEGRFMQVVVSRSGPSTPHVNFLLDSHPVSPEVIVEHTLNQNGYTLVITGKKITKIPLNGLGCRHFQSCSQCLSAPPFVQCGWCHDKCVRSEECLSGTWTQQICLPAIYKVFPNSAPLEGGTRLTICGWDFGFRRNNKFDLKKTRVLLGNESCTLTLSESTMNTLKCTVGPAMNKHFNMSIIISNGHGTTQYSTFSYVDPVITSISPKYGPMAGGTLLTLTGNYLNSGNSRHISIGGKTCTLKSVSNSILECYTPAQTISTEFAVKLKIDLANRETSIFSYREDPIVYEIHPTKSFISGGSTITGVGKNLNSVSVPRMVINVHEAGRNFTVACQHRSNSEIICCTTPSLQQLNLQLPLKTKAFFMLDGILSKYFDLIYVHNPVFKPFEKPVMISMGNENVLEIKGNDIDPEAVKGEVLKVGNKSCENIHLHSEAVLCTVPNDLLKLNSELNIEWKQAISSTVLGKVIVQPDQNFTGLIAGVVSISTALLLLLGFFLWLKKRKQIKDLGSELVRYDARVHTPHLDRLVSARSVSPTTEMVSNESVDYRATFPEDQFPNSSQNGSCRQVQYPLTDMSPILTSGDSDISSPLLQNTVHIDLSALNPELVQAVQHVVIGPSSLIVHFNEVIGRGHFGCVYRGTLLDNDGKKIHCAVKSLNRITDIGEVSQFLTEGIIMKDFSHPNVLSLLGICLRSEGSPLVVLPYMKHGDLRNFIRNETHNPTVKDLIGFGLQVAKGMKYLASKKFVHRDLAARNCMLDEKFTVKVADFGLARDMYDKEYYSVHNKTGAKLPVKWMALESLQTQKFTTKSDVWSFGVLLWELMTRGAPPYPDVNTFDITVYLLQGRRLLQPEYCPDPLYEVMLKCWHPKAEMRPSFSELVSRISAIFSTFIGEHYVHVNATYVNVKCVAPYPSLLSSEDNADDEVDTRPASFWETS

## O=C(Nc1ccc(Oc2ccnc(Cl)c2Cl)c(F)c1)c1nc(-c2ccc(F)c(Cl)c2)cs1 [Compound 51am, 4-(3-Chloro-4-fluorophenyl)-N-(4-((2,3-dichloropyridin-4-yl)oxy)-3-fluorophenyl)thiazole-2-carboxamide]
A549
  IC50: 830 ± 360 nM
Flt-4
  IC50: 276 nM
HT-29
  IC50: 680 ± 90 nM
PDGFRα
  IC50: 425 nM
EGFR
  IC50: > 10000 nM
[1]
  effect on c-Met phosphorylation (western blot): inhibited c-Met phosphorylation in a dose-dependent manner
c-kit
  IC50: 4.94 nM
PDGFRβ
  IC50: 513 nM
Flt-3
  IC50: 6.12 nM
FHC
  IC50: 8630 ± 1520 nM
c-Met Y1230H
  IC50: 45.8 nM
c-Met D1228H
  IC50: 29.4 nM
MDA-MB-231
  IC50: 3940 ± 1320 nM
MKN-45
  IC50: 92 ± 6 nM
c-Met H1094R
  IC50: 93.6 nM
[2]; iv, i.v. (1.5 mg/kg)
  AUC(0-inf): 2500 ng·h/mL
  Cmax: 552 ng/mL
  half-life: 3.2 h
[2]; iv, i.v. (1.5 mg/kg), CL = dose/AUCi.v.
  clearance: 10 mL/min/kg
[2]; oral, p.o. (10 mg/kg) vs i.v. (1.5 mg/kg), read-out: F (oral bioavailability)
  bioavailability: 69%
[2]; po, p.o. (10 mg/kg)
  AUC(0-inf): 11500 ng·h/mL
  Cmax: 1760 ng/mL
  Tmax: 4.1 h
  half-life: 5.6 h
Ron
  IC50: 3.83 nM
c-Met Y1235D
  IC50: 54.2 nM
VEGFR-2
  IC50: 527 nM
HUVEC
  IC50: 2540 ± 460 nM
[3]
  fold less potent than against c-Met: 108–207 fold
c-Met
  IC50: 2.54 ± 0.49 nM
MKN-45 cells; MKN-45, 0.4 μM
  percentage of apoptotic cells: 14.74%
MKN-45 cells; MKN-45, 0.8 μM
  percentage of apoptotic cells: 19.83%
MKN-45 cells; MKN-45, 1.2 μM
  percentage of apoptotic cells: 38.54%
c-Met M1250T
  IC50: 26.5 nM
